Data as given in US6444832B1, “Amino alcohol derivatives, method of producing said derivatives and medicaments containing them” (priority 1995, dated 2002).

System: primary osteoblastic cells of foetal rat calvariae
Assay: DNA synthesis assay in primary cultures of osteoblasts from fetal rat calvariae (3H-thymidine incorporation)
Assay type: cell-based
Settings: 1 μg/ml; 24 hours incubation, methyl-3H-thymidine during the last 3 hours; medium containing BSA control = 100%
Experimental: Compounds of formula (I) were examined in a DNA synthesis assay in primary cultures of osteoblasts from fetal rat calvariae. The experiments were carried out in accordance with Pfeilschifter et al., Endocrinology 126, 703 (1990).
Primary osteoblasts were isolated from foetal rat calvariae by sequential digestion with collagenase. In this process 5 cell fractions were obtained. A pool from the cell fractions 3-5 were cultured in vitro. The cells were cultured in an incubator at a relative air humidity of 95%, a CO2 content of 5% and a temperature of 37° C. The test substances were examined in the cultures of the first, second or third cell passage. For the examinations the cells were sown at a cell count of 7×10^3 cells (in 100 μl culture medium)/well in microtitre plates at least 76 hours before applying the test substances. MEM Dulbecco (plus 4.5 g/l glucose plus 3.7 g/l NaHCO3 without glutamine) was used as the culture medium to which 5% foetal calf serum (FCS) and […] penicillin/streptomycin had been added. Immediately before addition of the test substances to the cell culture the medium was replaced by 150 μl medium which contained 1 mg/ml bovine serum albumin (BSA) instead of FCS. Test substances were added at the desired concentrations to the medium containing BSA. TGFβ1 (transforming growth factor β1) at concentrations of 0.1-0.2 ng/ml were also examined as a positive control. Three determinations were carried out per (positive) control or substance concentration. The cell cultures were incubated for 24 hours with test substances, a thymidine probe (1 μCi methyl-^3H-thymidine in 20 μl PBS solution) being additionally present during the last 3 hours. At the end of the incubation period the cell cultures were washed three times with 0.9% saline solution and subsequently admixed with 100 μl liquid scintillator each time (OptiPhase Supermix TM®). Afterwards the radioactivity incorporated into the DNA was measured in cpm in a liquid scintillation counter (1450 MicroBeta®). Cell cultures which had only received medium containing BSA served as controls (100%).

Row | SMILES | Rate of DNA synthesis of primary osteoblastic cells of foetal rat calvariae in percent compared to the control (=100%) [%]
1 | CC/C=C\C/C=C\C/C=C\CCCCCCCC(=O)N[C@@H](CO)CCCC (stereo in doubt) [Example 9] | 367
2 | CCCCC/C=C\C/C=C\CCCCCCCC(=O)N[C@@H](CO)CCCC (stereo in doubt) [Example 10] | 475
3 | CCCCC/C=C\C/C=C\CCCCCCCC(=O)N[C@H](CC)CO (stereo in doubt) [Example 27] | 252
4 | CCCCCC/C=C\CCCCCCCC(=O)NC(CO)CCCC (stereo not drawn) [Example 11] | 191
5 | CCCC/C=C\CCCCCCCC(=O)NC(CO)CCCC (stereo not drawn) [Example 19] | 298
6 | CCCCCCCCC#CCCCCCCCC(=O)NC(CO)CCCC (stereo not drawn) [Example 20] | 250
7 | CCCCCCCC/C=C/CCCCCCCC(=O)NC(CO)CCCC (stereo not drawn) [Example 21] | 188
8 | CCCCC/C=C\C/C=C\CCCCCCCC(=O)NC(CO)CCCC (stereo not drawn) [Example 24] | 223
9 | CCCCCCCC/C=C\CCCCCCCC(=O)NC(CO)CCCC (stereo not drawn) [Example 26] | 296
